Test results reported in patent publication US20020035111A1, “Method of inhibiting neoplastic cells with tetracyclic pyrido[3,4-B] indole derivatives” (priority 1998, published 2002).

SMILES	melting point
COc1ccc([C@H]2c3[nH]c4ccc(F)cc4c3C[C@@H]3C(=O)N(CC(F)(F)F)CC(=O)N23)cc1 (relative stereo) [Example 5, Cis-2,3,6,7,12,12a-Hexahydro-10-Fluoro-6-(4-Methoxyphenyl)-2-(2,2,2-Trifluoroethyl)-Pyrazino(2′,1′:6,1)Pyrido(3,4-b)Indole-1,4-Dione]	190 °C
O=C1[C@H]2Cc3c([nH]c4ccccc34)[C@H](c3ccc4c(c3)OCO4)N2C(=O)CN1Cc1cccnc1 (relative stereo) [Example 11, Cis-2,3,6,7,12,12a-Hexahydro-2-(3-Pyridylmethyl)-6-(3,4-Methylenedioxyphenyl)-Pyrazino(2′,1′:6,1)Pyrido(3,4-b)Indole-1,4-Dione]	292 to 293 °C
O=C1[C@H]2Cc3c([nH]c4ccccc34)[C@H](c3ccc4c(c3)OCO4)N2C(=O)CN1CC(F)(F)F (relative stereo) [Example 14, Cis-2,3,6,7,12,12a-Hexahydro-2-(2,2,2-Trifluoroethyl)-6-(3,4-Methylenedioxyphenyl)-Pyrazino(2′,1′:6,1)Pyrido(3,4-b)Indole-1,4-Dione]	303 °C
CC(C)N1CC(=O)N2[C@@H](c3ccc4c(c3)OCO4)c3[nH]c4ccccc4c3C[C@@H]2C1=O (relative stereo) [Example 16, Cis-2,3,6,7,12,12a-Hexahydro-2-Isopropyl-6-(3,4-Methylenedioxyphenyl) Pyrazino(2′,1′:6,1)Pyrido(3,4-b)Indole-1,4-Dione]	248 to 250 °C
O=C1[C@H]2Cc3c([nH]c4ccccc34)[C@H](c3ccc4c(c3)OCO4)N2C(=O)CN1Cc1ccccc1 (relative stereo) [Example 23, Cis-2,3,6,7,12,12a-Hexahydro-2-Benzyl-6-(3,4-Methylenedioxyphenyl)Pyrazino(2′,1′:6,1)Pyrido(3,4-b)Indole-1,4-Dione]	285 to 287 °C
COc1ccc([C@H]2c3[nH]c4ccccc4c3C[C@@H]3C(=O)N(CC(F)(F)F)CC(=O)N23)cc1 (relative stereo) [Example 28, Cis-2,3,6,7,12,12a-Hexahydro-6-(4-Methoxyphenyl)-2-(2,2,2-Trifluoroethyl)Pyrazino(2′,1′:6,1)Pyrido(3,4-b)Indole-1,4-Dione]	232 °C
COc1ccc([C@H]2c3[nH]c4ccccc4c3C[C@@H]3C(=O)N(Cc4ccccc4)CC(=O)N23)cc1 (relative stereo) [Example 32, Cis-2,3,6,7,12,12a-Hexahydro-2-Benzyl-6-(4-Methoxyphenyl)Pyrazino(2′,1′:6,1)Pyrido(3,4-b)Indole-1,4-Dione]	275 to 279 °C
O=C1[C@H]2Cc3c([nH]c4ccccc34)[C@H](c3ccc4c(c3)CCO4)N2C(=O)CN1CC1CC1 (relative stereo) [Example 37, Cis-2,3,6,7,12,12a-Hexahydro-6-(2,3-Dihydrobenzo(b)Furan-5-yl)-2-Cyclopropylmethyl-Pyrazino(2′,1′:6,1)Pyrido(3,4-b)Indole-1,4-Dione]	165 to 166 °C
CCCCN1CC(=O)N2[C@@H](c3ccccc3Cl)c3[nH]c4ccccc4c3C[C@@H]2C1=O (relative stereo) [Example 40, Cis-2,3,6,7,12,12a-Hexahydro-2-Butyl-6-(2-Chlorophenyl) Pyrazino(2′,1′:6,1)Pyrido(3,4-b)Indole-1,4-Dione]	146 °C
CN1CC(=O)N2[C@@H](c3ccc4c(c3)CCCC4)c3[nH]c4ccccc4c3C[C@@H]2C1=O (relative stereo) [Example 47, Cis-2,3,6,7,12,12a-Hexahydro-2-Methyl-6-(1,2,3,4-Tetrahydro-6-Naphthyl)Pyrazino(2′,1′:6,1)Pyrido(3,4-b)Indole-1,4-Dione]	260 °C
CC(C)N1CC(=O)N2[C@@H](c3ccc4c(c3)CCCC4)c3[nH]c4ccccc4c3C[C@@H]2C1=O (relative stereo) [Example 48, Cis-2,3,6,7,12,12a-Hexahydro-2-Isopropyl-6-(1,2,3,4-Tetrahydro-6-Naphthyl)Pyrazino(2′,1′:6,1)Pyrido(3,4-b)Indole-1,4-Dione]	244 to 246 °C
CN1CC(=O)N2[C@@H](c3ccc(Br)s3)c3[nH]c4ccccc4c3C[C@@H]2C1=O (relative stereo) [Example 52, Cis-2,3,6,7,12,12a-Hexahydro-6-(5-Bromo-2-Thienyl)-2-Methylpyrazino(2′,1′:6,1)Pyrido(3,4-b)Indole-1,4-Dione]	258 °C
CN1CC(=O)N2[C@@H](c3cc(Br)cs3)c3[nH]c4ccccc4c3C[C@@H]2C1=O (relative stereo) [Example 53, Cis-2,3,6,7,12,12a-Hexahydro-6-(4-Bromo-2-Thienyl)-2-Methylpyrazino(2′,1′:6,1)Pyrido(3,4-b)Indole-1,4-Dione]	292 °C
Cc1ccc([C@H]2c3[nH]c4ccccc4c3C[C@@H]3C(=O)N(C)CC(=O)N23)s1 (relative stereo) [Example 56, Cis-2,3,6,7,12,12a-Hexahydro-2-Methyl-6-(5-Methyl-2-Thienyl)Pyrazino(2′,1′:6,1)Pyrido(3,4-b)Indole-1,4-Dione]	282 °C
CCCCN1CC(=O)N2[C@@H](c3ccsc3)c3[nH]c4ccccc4c3C[C@@H]2C1=O (relative stereo) [Example 58, Cis-2,3,6,7,12,12a-Hexahydro-2-Butyl-6-(3-Thienyl)-Pyrazino(2′,1′:6,1)Pyrido(3,4-b)Indole-1,4-Dione]	236 to 239 °C
CN1CC(=O)N2[C@@H](c3ccoc3)c3[nH]c4ccccc4c3C[C@@H]2C1=O (relative stereo) [Example 59, Cis-2,3,6,7,12,12a-Hexahydro-2-Methyl-6-(3-Furyl)-Pyrazino(2′,1′:6,1)Pyrido(3,4-b)Indole-1,4-Dione]	250 °C
Cc1ccc([C@H]2c3[nH]c4ccccc4c3C[C@@H]3C(=O)N(C)CC(=O)N23)o1 (relative stereo) [Example 60, Cis-2,3,6,7,12,12a-Hexahydro-2-Methyl-6-(5-Methyl-2-Furyl)-Pyrazino(2′,1′:6,1)Pyrido(3,4-b)Indole-1,4-Dione]	303 °C
CCCCN1CC(=O)N2[C@@H](c3ccc(C)cc3)c3[nH]c4ccccc4c3C[C@@H]2C1=O (relative stereo) [Example 63, Cis-2,3,6,7,12,12a-Hexahydro-2-Butyl-6-(4-Methylphenyl)-Pyrazino(2′,1′:6,1)Pyrido(3,4-b)Indole-1,4-Dione]	194 °C
CC(C)c1ccc([C@H]2c3[nH]c4ccccc4c3C[C@@H]3C(=O)N(C)CC(=O)N23)cc1 (relative stereo) [Example 74, Cis-2,3,6,7,12,12a-Hexahydro-6-(4-Isopropylphenyl)-2-Methylpyrazino(2′,1′:6,1)Pyrido(3,4-b)Indole-1,4-Dione]	244 °C
CCCCN1CC(=O)N2[C@@H](c3ccc(NS(C)(=O)=O)cc3)c3[nH]c4ccccc4c3C[C@@H]2C1=O (relative stereo) [Example 100, Cis-2,3,6,7,12,12a-Hexahydro-2-Butyl-6-(4-Methylsulfonamidophenyl)-Pyrazino(2′,1′:6,1)Pyrido(3,4-b)Indole-1,4-Dione]	188 °C
CCCCN1CC(=O)N2[C@H](c3ccc(OC)cc3)c3[nH]c4ccccc4c3C[C@@H]2C1=O [Example 85, (6R,12aR)-2,3,6,7,12,12a-Hexahydro-2-Butyl-6-(4-Methoxyphenyl)-Pyrazino(2′,1′:6,1)Pyrido(3,4-b)Indole-1,4-Dione]	183 to 184 °C
COc1ccc([C@@H]2c3[nH]c4ccccc4c3C[C@@H]3C(=O)N(C4CCCC4)CC(=O)N23)cc1 [Example 86, (6R,12aR)-2,3,6,7,12,12a-Hexahydro-2-Cyclopentyl-6-(4-Methoxyphenyl)-Pyrazino(2′,1′:6,1)Pyrido(3,4-b)Indole-1,4-Dione]	210 to 211 °C
O=C1[C@H]2Cc3c([nH]c4ccccc34)[C@@H](c3ccc4c(c3)CCC4)N2C(=O)CN1CC1CC1 [Example 94, (6R,12aR)-2,3,6,7,12,12a-Hexahydro-6-(5-Indanyl)-2-Cyclopropylmethylpyrazino(2′,1′:6,1)Pyrido(3,4-b)Indole-1,4-Dione]	176 °C
COc1ccc(CCN2CC(=O)N3[C@H](c4ccc5c(c4)OCO5)c4[nH]c5ccccc5c4C[C@@H]3C2=O)cc1OC [Example 104, (6R,12aR)-2,3,6,7,12,12a-Hexahydro-2-(3,4-Dimethoxyphenethyl)-6-(3,4-Methylenedioxyphenyl)-Pyrazino(2′,1′:6,1)Pyrido(3,4-b)Indole-1,4-Dione]	265 to 266 °C
O=C1[C@H]2Cc3c([nH]c4ccccc34)[C@@H](c3ccc4c(c3)OCO4)N2C(=O)CN1Cc1ccco1 [Example 105, (6R,12aR)-2,3,6,7,12,12a-Hexahydro-2-Furfuryl-6-(3,4-Methylenedioxyphenyl)-Pyrazino(2′,1′:6,1)Pyrido(3,4-b)Indole-1,4-Dione]	219 °C
CN1CC(=O)N2[C@H](c3ccc4c(c3)CCN4)c3[nH]c4ccccc4c3C[C@@H]2C1=O [Example 111, (6R,12aR)-2,3,6,7,12,12a-Hexahydro-6-(5-Indolinyl)-2-Methyl-Pyrazino(2′,1′:6,1)Pyrido(3,4-b)Indole-1,4-Dione]	240 °C
CN1CC(=O)N2[C@H](c3ccc(O)c(O)c3)c3[nH]c4ccccc4c3C[C@@H]2C1=O [Example 118, (6R, 12aR)-2,3,6,7,12,12a-Hexahydro-6-(3,4-Dihydroxyphenyl)-2-Methylpyrazino(2′,1′:6,1)Pyrido(3,4-b)Indole-1,4-Dione]	224 to 226 °C
CN1CC(=O)N2[C@H](c3ccc4occc4c3)c3[nH]c4ccccc4c3C[C@@H]2C1=O [Example 120, (6R, 12aR)-2,3,6,7, 12, 12a-Hexahydro-6-(5-Benzofuranyl)-2-Methyl-Pyrazino[2′,1′:6,1]Pyrido[3,4-b]Indole-1,4-Dione]	291 to 293 °C
CC(C)N1CC(=O)N2[C@H](c3ccc4occc4c3)c3[nH]c4ccccc4c3C[C@@H]2C1=O [Example 122, (6R, 12aR)-2,3,6,7, 12, 12a-Hexahydro-6-(5-Benzofuranyl)-2-Isopropyl-Pyrazino [2′,1′:6,1]Pyrido [3,4-B]Indole-1,4-Dione]	291 to 292 °C
